IC50, inhibition and melting point data for 14 compounds are collected here from paper PMC10535199, “A Combined Experimental and Computational Study of Novel Benzotriazinone Carboxamides as Alpha-Glucosidase Inhibitors” (Molecules, 2023).

The target of one data set is T1, Alpha-glucosidase (Saccharomyces cerevisiae, UniProt P53341).
T1 construct: purchased 5003-1KU Type I
Description: biochemical. To be noted: for IC50: pH 6.8, 30 min incubation; for inhibition at 500 µM: pH 6.8, read-out: Inhibition (%) at 0.5 mM. How it is done: The alpha-glucosidase inhibitory assay was performed by adopting the method of Pierre et al., with minor modifications. Alpha-glucosidase (Cat No. 5003-1KU Type I) belonging to Saccharomyces cerevisiae was selected for this protocol because its structure and function were similar to yeast and mammalian enzymes. In test tubes, 10 μL of test compound (0.5 mM), 70 μL of saline phosphate buffer (50 mM) to adjust pH at 6.8, and 10 μL of α-glucosidase enzyme (0.0234 units) were added to prepare […] assay mixture. A quantity of 10 μL p-nitrophenyl-α-D-glucopyranoside (0.5 mM, N1377 from Sigma, Burlington, MA, USA) was added to initiate the reaction and tubes were incubated for 30 min. […] Free substrate change in absorbance was monitored at 400 nm. The alpha-glucosidase inhibitory activity was calculated as percentage inhibition by using formula:% Inhibition = [(Abs. of control − Abs. of test)/Abs. of control] × 100
IC50 values were determined using EZ-Fit enzyme kinetics software version 5.03 (Perrella Scientific Inc. Amherst, Amherst, MA, USA).

T1 sequence (P53341 whole entry): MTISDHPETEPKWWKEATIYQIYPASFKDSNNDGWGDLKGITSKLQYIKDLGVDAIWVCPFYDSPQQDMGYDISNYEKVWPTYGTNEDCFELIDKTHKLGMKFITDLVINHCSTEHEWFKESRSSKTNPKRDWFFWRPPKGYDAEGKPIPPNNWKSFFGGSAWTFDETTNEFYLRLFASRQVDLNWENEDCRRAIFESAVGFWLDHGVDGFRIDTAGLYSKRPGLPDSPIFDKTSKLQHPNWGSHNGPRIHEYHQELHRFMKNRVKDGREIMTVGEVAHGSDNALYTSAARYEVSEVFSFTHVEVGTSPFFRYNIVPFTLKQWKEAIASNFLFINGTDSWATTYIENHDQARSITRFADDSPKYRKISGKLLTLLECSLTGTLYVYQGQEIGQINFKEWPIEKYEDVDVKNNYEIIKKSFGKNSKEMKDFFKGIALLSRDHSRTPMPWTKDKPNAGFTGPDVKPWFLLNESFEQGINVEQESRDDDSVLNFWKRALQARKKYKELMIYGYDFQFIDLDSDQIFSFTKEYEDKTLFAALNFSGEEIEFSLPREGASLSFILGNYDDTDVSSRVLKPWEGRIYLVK

As a reminder, the IC50 is the concentration needed to halve the response being measured. Read a low IC50 as greater potency in that assay. Broadly, the inhibition is the drop in the measured response relative to a control, in per cent. By melting point is commonly meant the temperature, or range, at which the solid turns liquid. For the compound `Cc1cc(C)cc(NC(=O)CCCn2nnc3ccccc3c2=O)c1` [14g, N-(3,5-Dimethylphenyl)-4-(4-oxobenzo[1,2,3]triazin-3(4H)-yl)butanamide], the melting point was 110 to 111 °C. For the same compound, at Alpha-glucosidase, the IC50 was found to be 196.52 ± 0.08 µM and the inhibition at 500 µM was determined as 78.32 ± 0.18%.

As to `CCCCCNC(=O)CCCn1nnc2ccccc2c1=O` [14c, N-pentyl-4-(4-Oxobenzo[1,2,3]triazin-3(4H)-yl)butanamide], the melting point is 106 to 107 °C. For the same compound, at Alpha-glucosidase, the inhibition at 500 µM is 42.34 ± 0.25%.

As to `CCCCNC(=O)CCCn1nnc2ccccc2c1=O` [14b, N-Butyl-4-(4-oxobenzo[1,2,3]triazin-3(4H)-yl)butanamide], the melting point was in the range of 123 to 124 °C. Further, at Alpha-glucosidase, the IC50 is 243.41 ± 0.18 µM and the inhibition at 500 µM stood at 67.53 ± 0.14%.

`CCCCCCCCNC(=O)CCCn1nnc2ccccc2c1=O` [14f, N-Octyl-4-(4-oxobenzo[1,2,3]triazin-3(4H)-yl)butanamide] registered a melting point of 95 to 96 °C. Also, the inhibition at 500 µM at Alpha-glucosidase was determined as 30.57 ± 0.16%.

Compound `O=C(CCCn1nnc2ccccc2c1=O)Nc1ccc(Cl)cc1` [14i, N-(4-Chlorophenyl)-4-(4-oxobenzo[1,2,3]triazin-3(4H)-yl)butanamide] had a melting point of 144 to 145 °C. At Alpha-glucosidase, the midpoint of inhibition, the IC50, lay at 163.29 ± 0.13 µM and the inhibition at 500 µM was 82.77 ± 0.2%.

For `CCCCCCNC(=O)CCCn1nnc2ccccc2c1=O` [14d, N-Hexyl-4-(4-oxobenzo[1,2,3]triazin-3(4H)-yl)butanamide], the melting point fell in the range of 102 to 103 °C. At Alpha-glucosidase, the IC50 is 335.04 ± 0.07 µM and the inhibition at 500 µM worked out at 66.2 ± 0.11%.

For `CCCNC(=O)CCCn1nnc2ccccc2c1=O` [14a, N-propyl-4-(4-Oxobenzo[1,2,3]triazin-3(4H)-yl)butanamide], the melting point lay in the range of 127 to 128 °C. On Alpha-glucosidase, the inhibition at 500 µM came to 39.13 ± 0.19%.

For `Cc1cccc(NC(=O)CCCn2nnc3ccccc3c2=O)c1` [14l, N-(3-methylphenyl)-4-(4-Oxobenzo[1,2,3]triazin-3(4H)-yl)butanamide], the melting point fell in the range of 105 to 106 °C. Moreover, at Alpha-glucosidase, the 50% inhibitory concentration (IC50) came out at 32.14 ± 0.11 µM and the inhibition at 500 µM came to 92.63 ± 0.12%.

In turn, `CCCCCCCNC(=O)CCCn1nnc2ccccc2c1=O` [14e, N-Heptyl-4-(4-oxobenzo[1,2,3]triazin-3(4H)-yl)butanamide] gave a melting point of 100 to 101 °C. The inhibition at 500 µM at Alpha-glucosidase amounted to 40.23 ± 0.21%.

Compound `COc1ccccc1NC(=O)CCCn1nnc2ccccc2c1=O` [14m, N-(2-Methoxyphenyl)-4-(4-oxobenzo[1,2,3]triazin-3(4H)-yl)butanamide] had a melting point of 139 to 140 °C. For the same compound, at Alpha-glucosidase, inhibition was half-maximal at 121.3 ± 0.15 µM (IC50) and the inhibition at 500 µM was 84.31 ± 0.18%.

In the case of `Cc1ccc(NC(=O)CCCn2nnc3ccccc3c2=O)cc1` [14k, N-(4-methylphenyl)-4-(4-Oxobenzo[1,2,3]triazin-3(4H)-yl)butanamide], the melting point is 175 to 176 °C. In addition, on Alpha-glucosidase, the IC50 worked out at 27.13 ± 0.12 µM and the inhibition at 500 µM was determined as 94.18 ± 0.23%.

`O=C(CCCn1nnc2ccccc2c1=O)Nc1cccc(Cl)c1` [14j, N-(3-Chlorophenyl)-4-(4-oxobenzo[1,2,3]triazin-3(4H)-yl)butanamide] yielded a melting point of 209 to 210 °C. Also, at Alpha-glucosidase, it took 52.01 ± 0.07 µM to reach half-maximal inhibition (IC50) and the inhibition at 500 µM was determined as 89.35 ± 0.21%.

Compound `COc1ccc(NC(=O)CCCn2nnc3ccccc3c2=O)cc1` [14n, N-(4-Methoxyphenyl)-4-(4-oxobenzo[1,2,3]triazin-3(4H)-yl)butanamide] gave a melting point of 147 to 148 °C. Moreover, at Alpha-glucosidase, the IC50 turned out to be 75.37 ± 0.14 µM and the inhibition at 500 µM was found to be 87.46 ± 0.15%.

`O=C(CCCn1nnc2ccccc2c1=O)Nc1ccc(Br)cc1` [14h, N-(4-Bromophenyl)-4-(4-oxobenzo[1,2,3]triazin-3(4H)-yl)butanamide] yielded a melting point of 115 to 116 °C. At Alpha-glucosidase, it took 238.15 ± 0.15 µM to reach half-maximal inhibition (IC50) and the inhibition at 500 µM was determined as 74.25 ± 0.27%.
